Laboratory results from PubChem BioAssay AID489011 (The Scripps Research Institute Molecular Screening Center, 2010).
The source made the active and inactive calls.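 Rule for the calls: active = IC50 for blocking malaria parasite growth in red cells at or below 10 µM; inactive = the rest.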

System: P. falciparum 3D7 in RBCs, 3H-hypoxanthine incorporation, 48 h
Assay: antimalarial activity in infected erythrocytes – cell-based, radiolabel, RBCs, powder samples, M18AAP inhibitor project, late-stage follow-up (AID 489011)

SMILES | IC50
Cc1cc(C)cc(C(=O)n2cnnc2N)c1 | 7 µM
Oc1ccc(-c2csc(-c3ccccc3)n2)cc1O | > 25 µM (inactive)
O=C(COc1ccccc1C(=O)N/N=C/c1ccc(O)c(O)c1)N/N=C/c1ccc(O)c(O)c1 | 6 µM
Cc1cc(C)n2c(=S)[nH]nc2n1 | > 25 µM (inactive)
Oc1ccc(CCNc2c3ccccc3nc3ccccc23)cc1O | < 1.6 µM
CCC(C)c1ccc(O)c(N)c1 (configuration not stated) | 6 µM
Br/C(C=Nn1cnnc1)=C\c1ccccc1 | 11 µM (inactive)
